Measured values published in patent US7638623B2, “Galactoside inhibitors of galectins” (Forskarpatent I SYD AB, priority 2004, dated 2009).
pKd: −log10 of the molar value.

What was measured:
galectin-3 = biological target: T1, galectin-3 (Homo sapiens, UniProt P17931); assay: fluorescence polarization-based galectin-3 inhibition assay; type: binding; conditions: read-out: Calculated Kd
T1 construct: made in house; host or cells: Escherichia coli
Protocol: NMR-spectra were recorded with a Bruker DRX-400 instrument. Chemical shifts are given in ppm, with reference to internal residual solvent peaks. Chemical shifts and coupling constants were obtained from ^1H-NMR and proton resonances were assigned from COSY experiments. High-resolution FAB mass spectra (HRMS) were recorded with a JEOL SX-120 instrument. Fluorescence polarization experiments were performed on a PolarStar instrument (BMG, Offenburg; Germany). Column chromatography was performed on SiO2 (Matrex, 60 Å, 35-70 μm, Grace Amicon) and TLC was carried out on SiO2 60 F254 (Merck) with detection under UV light and developed with aqueous sulfuric acid. Concentrations were made using rotary evaporation with bath temperature at or below 40° C. CH2Cl2 and CH3CN were dried by distillation from CaH2.
To 100 μL of galectin-3 (1 μM) and a fluorescent probe (2-(fluorescein-5/6-yl-carbonyl)-aminoethyl 4-O-[3-O-(4-methoxylbenzyl)-β-D-galactopyranosyl]-β-D-glucopyranoside, 0.1 μM) were added inhibitor solution (3.2-80 μM, 100 μL), the plate was incubated under slow rotary shaking in the dark for 5 minutes, and fluorescence polarization measured at room temperature. The fluorescence was measured from above in 96 well microtiter plates (black polystyrene, Costar, Corning, N.Y.) using a PolarStar instrument (BMG, Offenburg; Germany). Control wells containing only fluorescent probe or fluorescein were included. All dilutions and measurements were done in PBS.

galectins = conditions: cited from earlier work

T1 sequence (P17931 whole entry): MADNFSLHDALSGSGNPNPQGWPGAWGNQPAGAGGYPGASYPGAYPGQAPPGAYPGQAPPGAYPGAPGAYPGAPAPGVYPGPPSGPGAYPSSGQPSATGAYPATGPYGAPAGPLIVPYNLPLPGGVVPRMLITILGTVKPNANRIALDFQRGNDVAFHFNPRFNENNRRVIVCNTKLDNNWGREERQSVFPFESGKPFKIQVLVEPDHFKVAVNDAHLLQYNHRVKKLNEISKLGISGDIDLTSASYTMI

Row | SMILES | pKd (galectin-3) | also measured
1 | O=C(N[C@H]1[C@@H](O)[C@@H](CO)O[C@@H](S[C@@H]2O[C@H](CO)[C@H](O)[C@H](NC(=O)c3ccccc3)[C@H]2O)[C@@H]1O)c1ccccc1 [Compound 17, Bis-(3-deoxy-3-benzamido-β-D-galactopyranosyl) sulfane] | 5.84 | 
2 | COc1cc(OC)cc(C(=O)NC2C(O)[C@H](S[C@@H]3OC(CO)[C@H](O)C(NC(=O)c4cc(OC)cc(OC)c4)C3O)OC(CO)[C@@H]2O)c1 (stereo partly drawn) [Compound 19, Bis-[3-deoxy-(3,5-dimethoxybenzamido)-β-D-galactopyranosyl]sulfane] | 7.70 | 
3 | O=C(N[C@H]1[C@@H](O)[C@@H](CO)O[C@@H](S[C@@H]2O[C@H](CO)[C@H](O)[C@H](NC(=O)c3ccc([N+](=O)[O-])cc3)[C@H]2O)[C@@H]1O)c1ccc([N+](=O)[O-])cc1 [Compound 20, Bis-[3-deoxy-3-(4-nitrobenzamido)-β-D-galactopyranosyl]sulfane] | 7.30 | 
4 | O=C(N[C@H]1[C@@H](O)[C@@H](CO)O[C@@H](S[C@@H]2O[C@H](CO)[C@H](O)[C@H](NC(=O)c3ccc4ccccc4c3)[C@H]2O)[C@@H]1O)c1ccc2ccccc2c1 [Compound 21, Bis-[3-deoxy-3-(2-naphthamido)-β-D-galactopyranosyl]sulfane] | 7.52 | 
5 | CO[C@@H]1OC(CO)[C@@H](O[C@@H]2OC(CO)[C@H](O)C(O)C2O)C(O)C1NC(C)=O (stereo partly drawn) [Compound 22, methyl β-glycoside of N-acetyllactosamine, reference compound] | 4.28 | 
6 | O=C[C@H](O)[C@@H](O)[C@@H](O)[C@H](O)CO [D-galactose] |  | affinity, times lower than lactose (galectins; relative to lactose): 50-100 times
7 | OC[C@H]1O[C@@H](O[C@H]2[C@H](O)[C@@H](O)C(O)O[C@@H]2CO)[C@H](O)[C@@H](O)[C@H]1O (stereo partly shown) [lactose] |  | pKd (galectins; all galectins): 3.00 to 3.30
